Reference: article PMC10178848, “Modulating fast skeletal muscle contraction protects skeletal muscle in animal models of Duchenne muscular dystrophy” (The Journal of Clinical Investigation, 2023)

System: GRMD plasma proteins
Type: in vivo, dog
Details: EDG-5506 treatment to GRMD baseline

O=c1ccc(-c2cnc(OCC(F)(F)F)nc2)nn1Cc1cncc(F)c1 [EDG-5506]
Proteasome activator complex subunit 3 (PSME3): Change from GRMD Baseline (fraction) (Decreased in GRMD): 0.0977 fraction
Protein S100-A4 (S100A4): Change from GRMD Baseline (fraction) (Decreased in GRMD): 0.1824 fraction
Protein amnionless (AMN): Change from GRMD Baseline (fraction) (Decreased in GRMD): 0.1425 fraction
Protein jagged-1 (JAG1): Change from GRMD Baseline (fraction) (Decreased in GRMD): 0.2072 fraction
Retinol-binding protein 4 (RBP4): Change from GRMD Baseline (fraction) (Decreased in GRMD): 0.0942 fraction
Roundabout homolog 2 (ROBO2): Change from GRMD Baseline (fraction) (Decreased in GRMD): 0.1874 fraction
SLIT and NTRK-like protein 5 (SLITRK5): Change from GRMD Baseline (fraction) (Decreased in GRMD): 0.1091 fraction
SPARC (SPARC): Change from GRMD Baseline (fraction) (Decreased in GRMD): 0.0605 fraction
Sclerostin (SOST): Change from GRMD Baseline (fraction) (Decreased in GRMD): 0.197 fraction
Semaphorin-3E (SEMA3E): Change from GRMD Baseline (fraction) (Decreased in GRMD): -0.0152 fraction
Semaphorin-5A (SEMA5A): Change from GRMD Baseline (fraction) (Decreased in GRMD): 0.0882 fraction
Serum albumin (ALB): Change from GRMD Baseline (fraction) (Decreased in GRMD): 0.068 fraction
Sialic acid-binding Ig-like lectin 6 (SIGLEC6): Change from GRMD Baseline (fraction) (Decreased in GRMD): 0.1345 fraction
Stem cell growth factor-alpha (CLEC11A): Change from GRMD Baseline (fraction) (Decreased in GRMD): -0.071 fraction
T-lymphocyte surface antigen Ly-9 (LY9): Change from GRMD Baseline (fraction) (Decreased in GRMD): 0.0785 fraction
TGF-beta receptor type-2 (TGFBR2): Change from GRMD Baseline (fraction) (Decreased in GRMD): -0.0644 fraction
Tropomyosin alpha-1 chain (TPM1): Change from GRMD Baseline (fraction) (Decreased in GRMD): 0.0152 fraction
Tumor necrosis factor receptor superfamily member 10B (TNFRSF10B): Change from GRMD Baseline (fraction) (Decreased in GRMD): 0.131 fraction
Tumor necrosis factor-inducible gene 6 protein (TNFAIP6): Change from GRMD Baseline (fraction) (Decreased in GRMD): 0.2046 fraction
Wnt inhibitory factor 1 (WIF1): Change from GRMD Baseline (fraction) (Decreased in GRMD): 0.0365 fraction
Activated Protein C (PROC): Change from GRMD Baseline (fraction) (Increased in GRMD): -0.0147 fraction
Adiponectin (ADIPOQ): Change from GRMD Baseline (fraction) (Increased in GRMD): -0.1461 fraction
Alanine aminotransferase 1 (GPT): Change from GRMD Baseline (fraction) (Increased in GRMD): -0.0729 fraction
Alpha-2-antiplasmin (SERPINF2): Change from GRMD Baseline (fraction) (Increased in GRMD): -0.0328 fraction
Apolipoprotein D (APOD): Change from GRMD Baseline (fraction) (Increased in GRMD): -0.0675 fraction
Apolipoprotein L1 (APOL1): Change from GRMD Baseline (fraction) (Increased in GRMD): -0.1374 fraction
Asialoglycoprotein receptor 1 (ASGR1): Change from GRMD Baseline (fraction) (Increased in GRMD): -0.009 fraction
Bone morphogenetic protein 1 (BMP1): Change from GRMD Baseline (fraction) (Increased in GRMD): 0.0186 fraction
Breast cancer anti-estrogen resistance protein 3 (BCAR3): Change from GRMD Baseline (fraction) (Increased in GRMD): -0.0831 fraction
C5a anaphylatoxin (C5): Change from GRMD Baseline (fraction) (Increased in GRMD): 0.2048 fraction
C-C motif chemokine 1 (CCL1): Change from GRMD Baseline (fraction) (Increased in GRMD): -0.0825 fraction
C-C motif chemokine 3 (CCL3): Change from GRMD Baseline (fraction) (Increased in GRMD): -0.078 fraction
C-X-C motif chemokine 5 (CXCL5): Change from GRMD Baseline (fraction) (Increased in GRMD): -0.0608 fraction
CD63 antigen (CD63): Change from GRMD Baseline (fraction) (Increased in GRMD): -0.0803 fraction
CD97 antigen (CD97): Change from GRMD Baseline (fraction) (Increased in GRMD): -0.1124 fraction
CD109 antigen (CD109): Change from GRMD Baseline (fraction) (Increased in GRMD): -0.0257 fraction
CD177 antigen (CD177): Change from GRMD Baseline (fraction) (Increased in GRMD): -0.1306 fraction
Carbonic anhydrase 4 (CA4): Change from GRMD Baseline (fraction) (Increased in GRMD): -0.0922 fraction
Caspase-3 (CASP3): Change from GRMD Baseline (fraction) (Increased in GRMD): -0.0323 fraction
Cell adhesion molecule 3 (CADM3): Change from GRMD Baseline (fraction) (Increased in GRMD): -0.0647 fraction
Change from GRMD Baseline (fraction): 1-phosphatidylinositol 4,5-bisphosphate phosphodiesterase gamma-1 (PLCG1) (Increased in GRMD): -0.0855 fraction
Change from GRMD Baseline (fraction): 14-3-3 protein family (YWHAB,YWHAE,YWHAG,YWHAH,YWHAQ,YWHAZ,SFN) (Increased in GRMD): -0.1463 fraction
Change from GRMD Baseline (fraction): 26S proteasome non-ATPase regulatory subunit 7 (PSMD7) (Increased in GRMD): 0.0373 fraction
Change from GRMD Baseline (fraction): 40S ribosomal protein S7 (RPS7) (Increased in GRMD): -0.3231 fraction
Change from GRMD Baseline (fraction): A disintegrin and metalloproteinase with thrombospondin motifs 5 (ADAMTS5) (Increased in GRMD): 0.004 fraction
Change from GRMD Baseline (fraction): A disintegrin and metalloproteinase with thrombospondin motifs 15 (ADAMTS15) (Increased in GRMD): -0.0189 fraction
Change from GRMD Baseline (fraction): AH receptor-interacting protein (AIP) (Increased in GRMD): -0.1069 fraction
Change from GRMD Baseline (fraction): AMP Kinase (alpha2beta2gamma1) (PRKAA2 PRKAB2 PRKAG1) (Increased in GRMD): -0.3422 fraction
Change from GRMD Baseline (fraction): ATP synthase subunit beta, mitochondrial (ATP5B) (Increased in GRMD): 0.3871 fraction
Change from GRMD Baseline (fraction): ATP-dependent RNA helicase DDX19B (DDX19B) (Increased in GRMD): -0.2236 fraction
Change from GRMD Baseline (fraction): Acidic leucine-rich nuclear phosphoprotein 32 family member B (ANP32B) (Increased in GRMD): -0.3439 fraction
Change from GRMD Baseline (fraction): Activin receptor type-1B (ACVR1B) (Increased in GRMD): -0.0675 fraction
Change from GRMD Baseline (fraction): Adenylate kinase isoenzyme 1 (AK1) (Increased in GRMD): -0.5663 fraction
Change from GRMD Baseline (fraction): Adenylosuccinate lyase (ADSL) (Increased in GRMD): 0.1427 fraction
Change from GRMD Baseline (fraction): Afamin (AFM) (Increased in GRMD): -0.1952 fraction
Change from GRMD Baseline (fraction): Aflatoxin B1 aldehyde reductase member 2 (AKR7A2) (Increased in GRMD): -0.1733 fraction
Change from GRMD Baseline (fraction): Alcohol dehydrogenase [NADP(+)] (AKR1A1) (Increased in GRMD): -0.2833 fraction
Change from GRMD Baseline (fraction): Aminoacylase-1 (ACY1) (Increased in GRMD): -0.4238 fraction
Change from GRMD Baseline (fraction): Amphoterin-induced protein 2 (AMIGO2) (Increased in GRMD): 0.0688 fraction
Change from GRMD Baseline (fraction): Annexin A6 (ANXA6) (Increased in GRMD): -0.2759 fraction
Change from GRMD Baseline (fraction): Anterior gradient protein 2 homolog (AGR2) (Increased in GRMD): -0.0848 fraction
Change from GRMD Baseline (fraction): Apolipoprotein E (APOE) (Increased in GRMD): -0.1554 fraction
Change from GRMD Baseline (fraction): Apolipoprotein E (isoform E3) (APOE) (Increased in GRMD): 0.0588 fraction
Change from GRMD Baseline (fraction): Apolipoprotein E (isoform E4) (APOE) (Increased in GRMD): -0.0389 fraction
Change from GRMD Baseline (fraction): Apoptosis regulator Bcl-2 (BCL2) (Increased in GRMD): -0.1414 fraction
Change from GRMD Baseline (fraction): Artemin (ARTN) (Increased in GRMD): -0.0443 fraction
Change from GRMD Baseline (fraction): Arylsulfatase B (ARSB) (Increased in GRMD): -0.0585 fraction
Change from GRMD Baseline (fraction): B-cell receptor CD22 (CD22) (Increased in GRMD): -0.1198 fraction
Change from GRMD Baseline (fraction): Baculoviral IAP repeat-containing protein 5 (BIRC5) (Increased in GRMD): -0.1027 fraction
Change from GRMD Baseline (fraction): Basal Cell Adhesion Molecule (BCAM) (Increased in GRMD): -0.0829 fraction
Change from GRMD Baseline (fraction): Bcl-2-like protein 1 (BCL2L1) (Increased in GRMD): -0.0786 fraction
Change from GRMD Baseline (fraction): Bone sialoprotein 2 (IBSP) (Increased in GRMD): -0.0968 fraction
Change from GRMD Baseline (fraction): C-C motif chemokine 13 (CCL13) (Increased in GRMD): -0.0908 fraction
Change from GRMD Baseline (fraction): C-C motif chemokine 23 (CCL23) (Increased in GRMD): -0.0571 fraction
Change from GRMD Baseline (fraction): CCAAT/enhancer-binding protein beta (CEBPB) (Increased in GRMD): -0.0589 fraction
Change from GRMD Baseline (fraction): CD59 glycoprotein (CD59) (Increased in GRMD): -0.0497 fraction
Change from GRMD Baseline (fraction): Calcineurin (PPP3CA PPP3R1) (Increased in GRMD): -0.2961 fraction
Change from GRMD Baseline (fraction): Calcineurin subunit B type 1 (PPP3R1) (Increased in GRMD): -0.1572 fraction
Change from GRMD Baseline (fraction): Calcium/calmodulin-dependent protein kinase type 1 (CAMK1) (Increased in GRMD): -0.1284 fraction
Change from GRMD Baseline (fraction): Calcium/calmodulin-dependent protein kinase type 1D (CAMK1D) (Increased in GRMD): -0.0749 fraction
Change from GRMD Baseline (fraction): Calcium/calmodulin-dependent protein kinase type II subunit alpha (CAMK2A) (Increased in GRMD): -0.4545 fraction
Change from GRMD Baseline (fraction): Calcium/calmodulin-dependent protein kinase type II subunit beta (CAMK2B) (Increased in GRMD): -0.4519 fraction
Change from GRMD Baseline (fraction): Calcium/calmodulin-dependent protein kinase type II subunit delta (CAMK2D) (Increased in GRMD): -0.3407 fraction
Change from GRMD Baseline (fraction): Calpain I (CAPN1 CAPNS1) (Increased in GRMD): -0.011 fraction
Change from GRMD Baseline (fraction): Calpastatin (CAST) (Increased in GRMD): -0.036 fraction
Change from GRMD Baseline (fraction): Carbonic anhydrase 3 (CA3) (Increased in GRMD): -0.4126 fraction
Change from GRMD Baseline (fraction): Cardiotrophin-1 (CTF1) (Increased in GRMD): -0.0756 fraction
Change from GRMD Baseline (fraction): Catalase (CAT) (Increased in GRMD): -0.1548 fraction
Change from GRMD Baseline (fraction): Choline/ethanolamine kinase (CHKB) (Increased in GRMD): -0.0698 fraction
Change from GRMD Baseline (fraction): Chymase (CMA1) (Increased in GRMD): -0.0479 fraction
Change from GRMD Baseline (fraction): Clusterin (CLU) (Increased in GRMD): -0.1079 fraction
Change from GRMD Baseline (fraction): Complement component C6 (C6) (Increased in GRMD): 0.1732 fraction
Change from GRMD Baseline (fraction): Complement component C8 (C8A C8B C8G) (Increased in GRMD): -0.1065 fraction
Change from GRMD Baseline (fraction): Complement factor D (CFD) (Increased in GRMD): -0.1183 fraction
Change from GRMD Baseline (fraction): Creatine kinase M-type (CKM) (Increased in GRMD): -0.3439 fraction
Change from GRMD Baseline (fraction): Creatine kinase M-type:Creatine kinase B-type heterodimer (CKB CKM) (Increased in GRMD): -0.3657 fraction
Change from GRMD Baseline (fraction): Cyclin-dependent kinase inhibitor 1B (CDKN1B) (Increased in GRMD): -0.1686 fraction
Change from GRMD Baseline (fraction): Cysteine and glycine-rich protein 3 (CSRP3) (Increased in GRMD): -0.0108 fraction
Change from GRMD Baseline (fraction): Cytochrome c (CYCS) (Increased in GRMD): -0.561 fraction
Change from GRMD Baseline (fraction): DNA repair protein RAD51 homolog 1 (RAD51) (Increased in GRMD): -0.1205 fraction
Change from GRMD Baseline (fraction): Desmoglein-1 (DSG1) (Increased in GRMD): -0.0821 fraction
Change from GRMD Baseline (fraction): Dickkopf-like protein 1 (DKKL1) (Increased in GRMD): -0.0601 fraction
Change from GRMD Baseline (fraction): Down syndrome cell adhesion molecule (DSCAM) (Increased in GRMD): -0.0864 fraction
Change from GRMD Baseline (fraction): Dual specificity mitogen-activated protein kinase kinase 1 (MAP2K1) (Increased in GRMD): -0.3654 fraction
Change from GRMD Baseline (fraction): Dual specificity protein phosphatase 3 (DUSP3) (Increased in GRMD): -0.3709 fraction
Change from GRMD Baseline (fraction): Dynein light chain roadblock-type 1 (DYNLRB1) (Increased in GRMD): -0.5348 fraction
Change from GRMD Baseline (fraction): Ectonucleoside triphosphate diphosphohydrolase 1 (ENTPD1) (Increased in GRMD): -0.1101 fraction
Change from GRMD Baseline (fraction): Endothelin-converting enzyme 1 (ECE1) (Increased in GRMD): -0.1039 fraction
Change from GRMD Baseline (fraction): Ephrin type-A receptor 1 (EPHA1) (Increased in GRMD): -0.0912 fraction
Change from GRMD Baseline (fraction): Ephrin type-B receptor 6 (EPHB6) (Increased in GRMD): 0.1966 fraction
Change from GRMD Baseline (fraction): Epidermal growth factor (EGF) (Increased in GRMD): -0.0588 fraction
Change from GRMD Baseline (fraction): Epidermal growth factor receptor variant III (EGFR) (Increased in GRMD): -0.052 fraction
Change from GRMD Baseline (fraction): Erythropoietin receptor (EPOR) (Increased in GRMD): -0.0772 fraction
Change from GRMD Baseline (fraction): Estrogen receptor (ESR1) (Increased in GRMD): -0.0792 fraction
Change from GRMD Baseline (fraction): Eukaryotic translation initiation factor 4H (EIF4H) (Increased in GRMD): -0.4334 fraction
Change from GRMD Baseline (fraction): Eukaryotic translation initiation factor 4 gamma 2 (EIF4G2) (Increased in GRMD): -0.3268 fraction
Change from GRMD Baseline (fraction): Extracellular matrix protein 1 (ECM1) (Increased in GRMD): -0.1471 fraction
Change from GRMD Baseline (fraction): Fibroblast growth factor 8 isoform B (FGF8) (Increased in GRMD): -0.0878 fraction
Change from GRMD Baseline (fraction): Fibroblast growth factor 9 (FGF9) (Increased in GRMD): -0.0286 fraction
